Source: PubChem BioAssay AID504329 (Southern Research Specialized Biocontainment Screening …, 2011)

System: NS1A functional cell-based assay, percent inhibition
Experiment: H1N1 influenza NS1A inhibitors, functional cell based assay (AID 504329)

| SMILES | IC50 |
| --- | --- |
| C#CCOCCOCCOCCNc1nc(N2CCN(C(=O)CCCCCCCCCCNC(=O)[C@H]([C@@H](C)CC)n3cc(CCCCN=C(N)N)nn3)CC2)nc(N2CCN(C(=O)CCCCCCCCCCNC(=O)[C@H](CO)n3cc(CCCCCN)nn3)CC2)n1 | 16.1 µM |
| CN(C)c1ccnc2c[cH-]cc12.[Fe].c1ccc(-[c-]2[c-](-c3ccccc3)[c-](-c3ccccc3)[c-](-c3ccccc3)[c-]2-c2ccccc2)cc1 (configuration not stated) | 9.29 µM |
